US4082760A, “Derivatives of 2H,3H-benzimidazo(1,2-b)oxazole” (Italchemi S.p.A. Istituto Chimico Farmaceutico, priority 1975, dated 1978)

Legend:
Experiment in all cases: MIC of antibiotics alone or mixed with equimolar compound, beta-lactamase-producing germs
Assay type in all cases: cell-based
[1] = system: Pseudomonas Aeruginosa R4; conditions: combinations: equimolar quantities
From the text: (§1) The capacity of the products of general formula (I) to compete with the action of the beta-lactamase may be shown by comparing the minimum inhibiting concentrations (MIC) of some penicillins and cephalosporins when mixed with equimolar quantities of the products of general formula I and when not so mixed, in relation to pathogenic germs which produce beta-lactamase.

Escherichia Coli R8 = conditions: combinations: equimolar quantities
From the text: as §1

Escherichia Coli R3 = conditions: combinations: equimolar quantities
From the text: as §1

Escherichia Coli R9 = conditions: combinations: equimolar quantities
From the text: as §1

Protetts Rettgeri R5 = conditions: combinations: equimolar quantities
From the text: as §1

Protetts mirabilis = Protetts mirabilis (strain number not given); combinations: equimolar quantities
From the text: as §1

Protetts mirabilis R2 = conditions: combinations: equimolar quantities
From the text: as §1

Protetts mirabilis R7 = conditions: combinations: equimolar quantities
From the text: as §1

[2] = system: Pseudomonas Aeruginosa R1; conditions: combinations: equimolar quantities
From the text: as §1

| Structure (SMILES) | MIC [1] | MIC (Escherichia Coli R8) | MIC (Escherichia Coli R3) | MIC (Escherichia Coli R9) | MIC (Protetts Rettgeri R5) | MIC (Protetts mirabilis) | MIC (Protetts mirabilis R2) | MIC (Protetts mirabilis R7) | MIC [2] |
| --- | --- | --- | --- | --- | --- | --- | --- | --- | --- |
| CC1(C)S[C@@H]2[C@H](NC(=O)[C@H](N)c3ccccc3)C(=O)N2[C@H]1C(=O)O [Ampicillin] | 1000 γ/cc | 500 γ/cc | 1000 γ/cc | 500 γ/cc | 1000 γ/cc | 1000 γ/cc | 1000 γ/cc | 1000 γ/cc |  |
| O=C(Cc1cccs1)N[C@@H]1C(=O)N2C(C(=O)[O-])=C(C[n+]3ccccc3)CS[C@H]12 [Cephaloridine] |  |  |  |  |  |  |  |  | 1000 γ/cc |
| CC(=O)OCC1=C(C(=O)O)N2C(=O)[C@@H](NC(=O)Cc3cccs3)[C@H]2SC1 [Cephalothin] | 1000 γ/cc |  |  | 1000 γ/cc |  |  |  |  |  |
